Test results reported in paper PMC8429728, “TNK1 is a ubiquitin-binding and 14-3-3-regulated kinase that can be targeted to block tumor growth” (Nature Communications, 2021).
Like-named read-outs stand apart in the source and are kept apart here.

How the values were obtained:
Test in all cases: biochemical
Parameters in all cases: Reaction Biology 371-kinase panel at Km ATP, per cent enzyme activity relative to DMSO, single dose in duplicate
[1] = molecular target: CDK2/cyclin A (Homo sapiens, UniProt P24941); conditions: duplicate measurements, Km ATP
Summary of the method: (§1)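 In vitro selectivity panel: 371 kinases, inhibitor at 300 nM; % activity vs DMSO; IC50 by variable-slope sigmoidal fit, bottom = 0.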

[2] = molecular target: IRAK4 (Homo sapiens, UniProt Q9NWZ3); conditions: duplicate measurements, Km ATP
Summary of the method: as §1

[3] = molecular target: GSK3b (Homo sapiens, UniProt P49841); conditions: duplicate measurements, Km ATP
Summary of the method: as §1

[4] = molecular target: VRK1 (Homo sapiens, UniProt Q99986); conditions: duplicate measurements, Km ATP
VRK1, sequence (Q99986 whole entry): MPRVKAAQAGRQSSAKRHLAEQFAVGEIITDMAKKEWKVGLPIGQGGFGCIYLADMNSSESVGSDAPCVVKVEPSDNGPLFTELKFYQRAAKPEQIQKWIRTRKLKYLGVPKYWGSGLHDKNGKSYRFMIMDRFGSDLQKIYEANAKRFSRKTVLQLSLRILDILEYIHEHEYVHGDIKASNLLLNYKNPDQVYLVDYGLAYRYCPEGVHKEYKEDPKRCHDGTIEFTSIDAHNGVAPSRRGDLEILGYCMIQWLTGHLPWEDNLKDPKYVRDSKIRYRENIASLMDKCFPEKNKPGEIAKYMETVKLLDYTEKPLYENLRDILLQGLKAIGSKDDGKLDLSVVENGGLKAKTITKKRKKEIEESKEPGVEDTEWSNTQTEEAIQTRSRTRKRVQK
Summary of the method: as §1

[5] = molecular target: T1, PKG1b (Homo sapiens, UniProt Q13976); conditions: duplicate measurements, Km ATP
T1 construct: gene PRKG1; isoform beta
Summary of the method: as §1

[6] = molecular target: p70S6Kb/RPS6KB2 (Homo sapiens, UniProt Q9UBS0); conditions: duplicate measurements, Km ATP
Summary of the method: as §1

[7] = molecular target: T2, MKK6 (Homo sapiens, UniProt P52564); conditions: duplicate measurements, Km ATP
T2 construct: gene MAP2K6
T2 sequence (P52564 whole entry): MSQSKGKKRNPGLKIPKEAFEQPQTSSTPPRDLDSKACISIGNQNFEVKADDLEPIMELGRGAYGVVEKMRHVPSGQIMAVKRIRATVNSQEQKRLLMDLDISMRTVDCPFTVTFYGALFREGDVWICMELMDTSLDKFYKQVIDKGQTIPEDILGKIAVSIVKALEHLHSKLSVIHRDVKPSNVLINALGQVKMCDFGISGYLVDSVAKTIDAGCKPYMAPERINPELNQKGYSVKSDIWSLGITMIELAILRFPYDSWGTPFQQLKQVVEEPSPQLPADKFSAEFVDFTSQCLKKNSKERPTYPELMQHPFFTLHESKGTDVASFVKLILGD
Summary of the method: as §1

[8] = molecular target: DAPK1 (Homo sapiens, UniProt P53355); conditions: duplicate measurements, Km ATP
Summary of the method: as §1

[9] = molecular target: HPK1/MAP4K1 (Homo sapiens, UniProt Q92918); conditions: duplicate measurements, Km ATP
Summary of the method: as §1

[10] = molecular target: T3, MEK5 (Homo sapiens, UniProt Q13163); conditions: duplicate measurements, Km ATP
T3 construct: gene MAP2K5
T3 sequence (Q13163 whole entry): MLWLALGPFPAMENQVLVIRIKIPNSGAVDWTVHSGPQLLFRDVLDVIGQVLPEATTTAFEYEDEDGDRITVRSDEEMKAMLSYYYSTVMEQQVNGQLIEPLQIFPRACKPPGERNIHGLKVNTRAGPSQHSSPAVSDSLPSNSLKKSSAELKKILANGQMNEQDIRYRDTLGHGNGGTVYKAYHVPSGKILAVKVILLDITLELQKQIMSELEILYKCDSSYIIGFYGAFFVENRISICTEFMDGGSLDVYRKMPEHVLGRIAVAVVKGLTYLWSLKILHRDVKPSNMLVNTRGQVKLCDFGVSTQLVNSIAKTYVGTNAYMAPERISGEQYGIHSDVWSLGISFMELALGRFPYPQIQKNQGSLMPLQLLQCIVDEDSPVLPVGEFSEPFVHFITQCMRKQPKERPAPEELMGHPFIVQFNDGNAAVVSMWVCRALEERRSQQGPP
Summary of the method: as §1

[11] = molecular target: LOK/STK10 (Homo sapiens, UniProt O94804); conditions: duplicate measurements, Km ATP
Summary of the method: as §1

[12] = molecular target: TTBK1 (Homo sapiens, UniProt Q5TCY1); conditions: duplicate measurements, Km ATP
TTBK1, sequence (Q5TCY1 whole entry): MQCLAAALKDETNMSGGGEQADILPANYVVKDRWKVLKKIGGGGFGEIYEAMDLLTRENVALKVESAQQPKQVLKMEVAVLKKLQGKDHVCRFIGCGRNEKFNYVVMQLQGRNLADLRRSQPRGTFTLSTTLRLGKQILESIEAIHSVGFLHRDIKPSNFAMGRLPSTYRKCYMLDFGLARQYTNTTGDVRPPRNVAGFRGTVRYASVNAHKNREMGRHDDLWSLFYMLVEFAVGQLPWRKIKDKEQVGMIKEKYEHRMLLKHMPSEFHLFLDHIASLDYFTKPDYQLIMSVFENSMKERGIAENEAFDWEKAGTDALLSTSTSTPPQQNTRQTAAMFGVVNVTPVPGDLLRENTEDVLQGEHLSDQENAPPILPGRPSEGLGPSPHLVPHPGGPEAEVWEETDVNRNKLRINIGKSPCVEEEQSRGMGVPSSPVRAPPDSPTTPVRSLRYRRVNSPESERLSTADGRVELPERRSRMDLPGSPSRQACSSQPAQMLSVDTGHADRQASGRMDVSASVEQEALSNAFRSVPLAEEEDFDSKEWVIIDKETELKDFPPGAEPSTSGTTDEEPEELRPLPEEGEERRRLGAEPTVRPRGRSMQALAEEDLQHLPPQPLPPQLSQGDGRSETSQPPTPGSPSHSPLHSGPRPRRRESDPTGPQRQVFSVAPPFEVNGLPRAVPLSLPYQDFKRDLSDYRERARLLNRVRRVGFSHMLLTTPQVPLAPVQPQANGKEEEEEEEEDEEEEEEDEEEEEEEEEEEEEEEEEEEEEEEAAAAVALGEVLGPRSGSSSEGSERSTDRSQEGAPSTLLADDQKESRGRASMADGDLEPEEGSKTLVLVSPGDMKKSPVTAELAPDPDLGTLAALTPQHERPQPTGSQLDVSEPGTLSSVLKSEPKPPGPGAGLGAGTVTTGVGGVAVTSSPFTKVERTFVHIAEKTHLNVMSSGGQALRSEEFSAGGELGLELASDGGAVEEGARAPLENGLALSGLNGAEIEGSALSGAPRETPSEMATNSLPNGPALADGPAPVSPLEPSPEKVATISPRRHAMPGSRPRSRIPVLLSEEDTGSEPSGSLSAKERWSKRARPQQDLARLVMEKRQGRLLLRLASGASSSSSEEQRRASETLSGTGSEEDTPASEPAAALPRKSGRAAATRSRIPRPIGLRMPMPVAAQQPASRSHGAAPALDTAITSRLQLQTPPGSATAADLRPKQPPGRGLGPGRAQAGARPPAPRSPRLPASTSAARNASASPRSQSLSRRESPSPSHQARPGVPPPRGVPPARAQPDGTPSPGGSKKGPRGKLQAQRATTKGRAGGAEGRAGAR
Summary of the method: as §1

[13] = molecular target: PHKg1 (Homo sapiens, UniProt Q16816); conditions: duplicate measurements, Km ATP
PHKg1, sequence (Q16816 whole entry): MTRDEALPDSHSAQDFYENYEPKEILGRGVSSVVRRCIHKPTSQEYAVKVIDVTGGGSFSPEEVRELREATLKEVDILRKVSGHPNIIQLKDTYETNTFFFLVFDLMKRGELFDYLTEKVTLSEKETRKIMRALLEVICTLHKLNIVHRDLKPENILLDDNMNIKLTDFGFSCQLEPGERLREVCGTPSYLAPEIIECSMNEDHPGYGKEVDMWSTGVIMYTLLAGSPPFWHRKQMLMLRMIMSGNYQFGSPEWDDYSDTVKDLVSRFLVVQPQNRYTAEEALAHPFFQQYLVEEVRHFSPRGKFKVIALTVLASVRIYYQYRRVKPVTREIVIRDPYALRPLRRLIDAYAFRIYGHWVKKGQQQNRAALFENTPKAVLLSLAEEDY
Summary of the method: as §1

[14] = molecular target: RIPK4 (Homo sapiens, UniProt P57078); conditions: duplicate measurements, Km ATP
Summary of the method: as §1

[15] = molecular target: T4, MSSK1/STK23 (Homo sapiens, UniProt Q9UPE1); conditions: duplicate measurements, Km ATP
T4 construct: gene SRPK3
Summary of the method: as §1

[16] = molecular target: PASK (Homo sapiens, UniProt Q96RG2); conditions: duplicate measurements, Km ATP; read-out: % Enzyme Activity (relative to DMSO controls) / TP-0005801 (0.3µM) / Data 1
Summary of the method: as §1

[17] = molecular target: ERN2/IRE2 (Homo sapiens, UniProt Q76MJ5); conditions: duplicate measurements, Km ATP
ERN2/IRE2, sequence (Q76MJ5 whole entry): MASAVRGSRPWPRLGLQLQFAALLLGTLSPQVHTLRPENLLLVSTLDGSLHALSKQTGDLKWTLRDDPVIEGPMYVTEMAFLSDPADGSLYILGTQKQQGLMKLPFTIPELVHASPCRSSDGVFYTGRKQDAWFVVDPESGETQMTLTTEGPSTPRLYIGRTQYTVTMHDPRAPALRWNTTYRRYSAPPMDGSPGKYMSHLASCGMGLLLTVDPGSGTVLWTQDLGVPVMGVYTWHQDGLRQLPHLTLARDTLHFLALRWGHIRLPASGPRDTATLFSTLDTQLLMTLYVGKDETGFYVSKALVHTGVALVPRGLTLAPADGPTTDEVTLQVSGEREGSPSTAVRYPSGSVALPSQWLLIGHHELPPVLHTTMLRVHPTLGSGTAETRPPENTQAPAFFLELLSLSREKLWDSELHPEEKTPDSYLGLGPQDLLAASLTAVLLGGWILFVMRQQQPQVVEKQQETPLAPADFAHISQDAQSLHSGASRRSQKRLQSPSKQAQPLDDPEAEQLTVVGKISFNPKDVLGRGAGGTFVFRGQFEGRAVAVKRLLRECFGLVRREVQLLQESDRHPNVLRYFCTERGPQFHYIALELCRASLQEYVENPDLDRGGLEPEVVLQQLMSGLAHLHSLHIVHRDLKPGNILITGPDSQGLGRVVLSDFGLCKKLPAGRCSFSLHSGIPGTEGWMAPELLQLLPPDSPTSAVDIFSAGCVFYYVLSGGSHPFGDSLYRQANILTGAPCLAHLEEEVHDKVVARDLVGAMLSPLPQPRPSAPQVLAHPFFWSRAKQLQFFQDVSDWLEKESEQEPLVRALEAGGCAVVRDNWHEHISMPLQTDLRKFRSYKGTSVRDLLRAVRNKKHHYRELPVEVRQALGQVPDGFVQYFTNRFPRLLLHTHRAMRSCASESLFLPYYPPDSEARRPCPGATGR
Summary of the method: as §1

[18] = molecular target: TLK2 (Homo sapiens, UniProt Q86UE8); conditions: duplicate measurements, Km ATP
Summary of the method: as §1

[19] = molecular target: CTK/MATK (Homo sapiens, UniProt P42679); conditions: duplicate measurements, Km ATP
CTK/MATK, sequence (P42679 whole entry): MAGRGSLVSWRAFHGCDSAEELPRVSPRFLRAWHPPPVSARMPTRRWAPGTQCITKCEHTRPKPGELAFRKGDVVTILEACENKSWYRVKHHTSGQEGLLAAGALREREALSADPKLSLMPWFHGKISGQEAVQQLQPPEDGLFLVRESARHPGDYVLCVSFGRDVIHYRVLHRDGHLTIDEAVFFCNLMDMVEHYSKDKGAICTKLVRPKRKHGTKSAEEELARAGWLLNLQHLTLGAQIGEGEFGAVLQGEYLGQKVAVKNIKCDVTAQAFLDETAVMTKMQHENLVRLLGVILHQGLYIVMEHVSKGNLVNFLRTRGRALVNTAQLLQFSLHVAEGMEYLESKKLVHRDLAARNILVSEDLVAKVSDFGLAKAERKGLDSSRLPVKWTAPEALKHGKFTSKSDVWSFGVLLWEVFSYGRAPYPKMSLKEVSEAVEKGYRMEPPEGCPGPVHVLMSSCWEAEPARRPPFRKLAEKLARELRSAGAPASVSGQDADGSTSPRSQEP
Summary of the method: as §1

[20] = molecular target: PLK2 (Homo sapiens, UniProt Q9NYY3); conditions: duplicate measurements, Km ATP
PLK2, sequence (Q9NYY3 whole entry): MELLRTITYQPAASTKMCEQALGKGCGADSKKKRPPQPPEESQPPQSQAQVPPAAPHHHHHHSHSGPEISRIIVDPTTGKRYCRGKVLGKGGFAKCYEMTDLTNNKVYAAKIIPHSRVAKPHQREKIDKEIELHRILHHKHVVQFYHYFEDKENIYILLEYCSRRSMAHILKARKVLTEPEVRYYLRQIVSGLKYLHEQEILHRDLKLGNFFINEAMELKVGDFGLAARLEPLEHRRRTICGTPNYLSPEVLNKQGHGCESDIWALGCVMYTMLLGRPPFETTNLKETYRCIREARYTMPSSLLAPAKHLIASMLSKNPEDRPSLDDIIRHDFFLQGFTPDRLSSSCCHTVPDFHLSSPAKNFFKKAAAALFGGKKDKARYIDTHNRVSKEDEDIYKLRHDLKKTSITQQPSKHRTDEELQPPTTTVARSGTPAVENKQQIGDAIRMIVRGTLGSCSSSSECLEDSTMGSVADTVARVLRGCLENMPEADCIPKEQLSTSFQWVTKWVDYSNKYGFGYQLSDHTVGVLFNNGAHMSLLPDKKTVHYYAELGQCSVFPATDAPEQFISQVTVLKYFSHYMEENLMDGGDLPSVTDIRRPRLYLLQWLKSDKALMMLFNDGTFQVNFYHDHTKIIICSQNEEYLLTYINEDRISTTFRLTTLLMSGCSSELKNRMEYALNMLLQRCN
Summary of the method: as §1

[21] = read-out: % Enzyme Activity (relative to DMSO controls) / TP-0005801 (0.3µM) / Data 1
[22] = read-out: % Enzyme Activity (relative to DMSO controls) / TP-0005801 (0.3µM) / Data 2

COc1cc(N2CCN(C)CC2)c(C)cc1Nc1ncc(Br)c(Nc2cccnc2N(C)C)n1 [TP-5801]
remaining activity at 0.3 µM [1, 21]: 90.8%
remaining activity at 0.3 µM [1, 22]: 87.6%
remaining activity at 0.3 µM [2, 21]: 90.6%
remaining activity at 0.3 µM [2, 22]: 89.2%
remaining activity at 0.3 µM [3, 21]: 96.4%
remaining activity at 0.3 µM [3, 22]: 95.7%
remaining activity at 0.3 µM [4, 21]: 92.2%
remaining activity at 0.3 µM [4, 22]: 91.6%
remaining activity at 0.3 µM [5, 21]: 51%
remaining activity at 0.3 µM [5, 22]: 50%
remaining activity at 0.3 µM [6, 21]: 95.7%
remaining activity at 0.3 µM [6, 22]: 90.1%
remaining activity at 0.3 µM [7, 21]: 116%
remaining activity at 0.3 µM [7, 22]: 115%
remaining activity at 0.3 µM [8, 21]: 102%
remaining activity at 0.3 µM [8, 22]: 101%
remaining activity at 0.3 µM [9, 21]: 25.8%
remaining activity at 0.3 µM [9, 22]: 25.6%
remaining activity at 0.3 µM [10, 21]: 110%
remaining activity at 0.3 µM [10, 22]: 108%
remaining activity at 0.3 µM [11, 21]: 74.7%
remaining activity at 0.3 µM [11, 22]: 73.7%
remaining activity at 0.3 µM [12, 21]: 97.2%
remaining activity at 0.3 µM [12, 22]: 94%
remaining activity at 0.3 µM [13, 21]: 30.6%
remaining activity at 0.3 µM [13, 22]: 29.7%
remaining activity at 0.3 µM [14, 21]: 117%
remaining activity at 0.3 µM [14, 22]: 108%
remaining activity at 0.3 µM [15, 21]: 89.7%
remaining activity at 0.3 µM [15, 22]: 88.8%
remaining activity at 0.3 µM [16]: 102%
remaining activity at 0.3 µM [17, 21]: 52.8%
remaining activity at 0.3 µM [17, 22]: 51.5%
remaining activity at 0.3 µM [18, 21]: 101%
remaining activity at 0.3 µM [18, 22]: 100%
remaining activity at 0.3 µM [19, 21]: 108%
remaining activity at 0.3 µM [19, 22]: 106%
remaining activity at 0.3 µM [20, 21]: 84%
remaining activity at 0.3 µM [20, 22]: 83.9%
